From patent US20230000842A1, “METHODS OF TREATING CARTILAGE DISORDERS THROUGH INHIBITION OF CLK AND DYRK” (SAMUMED, LLC, priority 2019, published 2023)

Assays:
[1] = target: CLK2 kinase (Homo sapiens, UniProt P49760); assay: CLK2 kinase activity assay (Z-lyte FRET); assay type: biochemical; details: Z-lyte Ser/Thr 6 peptide, 60 μM ATP, 1 h at room temperature;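 also: FRET read-out as coumarin to fluorescein emission ratio, unphosphorylated peptide as 0% and phosphorylated peptide as 100% controls, duplicate reactions, non-linear regression fit of dose-response curves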
Experimental: This is a non-radioactive assay using fluorescence resonance energy transfer (FRET) between coumarin and fluorescein to detect kinase activity which is represented as a ratio of coumarin emission/fluorescein emission.
The mixture was allowed to incubate with the representative compounds for one hour at room temperature. All reactions were performed in duplicate. Unphosphorylated (“0% Control”) and phosphorylated (“100% control”) forms of Ser/Thr 6 served as control reactions. Additionally, an 11-point dose-response curve of Staurosporine (1 μM top) was run to serve as a positive compound control.
After incubation, Development Reagent A was diluted in Development Buffer then added to the reaction and allowed to further incubate for one hour at room temperature.
Dose-response curves were generated and inhibitory concentration (IC50) values were calculated using non-linear regression curve fit in the Dotmatics' Studies Software (Bishops Stortford, UK).

[2] = target: CLK3 kinase (Homo sapiens, UniProt P49761); assay: CLK3 kinase activity assay (Z-lyte FRET); assay type: biochemical; details: Z-lyte Ser/Thr 18 peptide, 156 μM ATP, 1 h at room temperature;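 also: kinase activity read as coumarin/fluorescein emission ratio by FRET, unphosphorylated peptide as 0% and phosphorylated peptide as 100% control, values from non-linear regression of dose-response curves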
[3] = system: primary human mesenchymal stem cells (hMSCs); assay: Chondrogenesis screening using primary human mesenchymal stem cells; assay type: cell-based; details: Homo sapiens, Mesenchymal stem cells, hMSC chondrogenesis; for EC50: concentration required to induce 50% levels of chondrogenesis with TGF-β3 as positive control, read-out: Conc (nM) of 50% TGF-β3 activity; for Emax: maximum activity relative to TGF-β3 (10 ng/mL) positive control, read-out: Max. Activity as % TGF-β3 activity
Procedure, shortened: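 Derived values are EC50 for 50% chondrogenesis, maximal activity and the dose giving it. These come from nodule area in passage 3–6 primary hMSCs, expressed as fold change over the mean of 3 same-plate DMSO wells, 2–3 replicates per concentration. TGF-β3 served as positive control.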

[4] = system: Wnt pathway activity (SW480 colon carcinoma cells stably expressing the Sp5-Luc reporter); assay: Wnt pathway activity screening assay (Sp5-Luc reporter gene assay); details: Homo sapiens, SW480, Table 4; SW480 cells stably expressing Sp5-Luc reporter, 10-point dose-response from 10 μM, 36 to 48 hours

Chain of CLK2 kinase (P49760 whole entry): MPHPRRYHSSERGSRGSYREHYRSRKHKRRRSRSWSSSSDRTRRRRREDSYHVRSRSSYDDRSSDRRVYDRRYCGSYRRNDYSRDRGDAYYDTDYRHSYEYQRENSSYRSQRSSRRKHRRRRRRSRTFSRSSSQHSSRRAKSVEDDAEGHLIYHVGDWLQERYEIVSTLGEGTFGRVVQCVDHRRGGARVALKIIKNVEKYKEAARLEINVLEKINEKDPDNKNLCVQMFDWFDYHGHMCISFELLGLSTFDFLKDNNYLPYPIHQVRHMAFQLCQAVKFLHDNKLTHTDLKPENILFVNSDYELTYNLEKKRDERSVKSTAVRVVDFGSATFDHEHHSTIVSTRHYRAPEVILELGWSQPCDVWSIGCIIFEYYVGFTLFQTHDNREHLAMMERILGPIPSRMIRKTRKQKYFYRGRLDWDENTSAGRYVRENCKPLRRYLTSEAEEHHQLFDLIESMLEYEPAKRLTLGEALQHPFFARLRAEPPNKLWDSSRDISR
Chain of CLK3 kinase (P49761 whole entry): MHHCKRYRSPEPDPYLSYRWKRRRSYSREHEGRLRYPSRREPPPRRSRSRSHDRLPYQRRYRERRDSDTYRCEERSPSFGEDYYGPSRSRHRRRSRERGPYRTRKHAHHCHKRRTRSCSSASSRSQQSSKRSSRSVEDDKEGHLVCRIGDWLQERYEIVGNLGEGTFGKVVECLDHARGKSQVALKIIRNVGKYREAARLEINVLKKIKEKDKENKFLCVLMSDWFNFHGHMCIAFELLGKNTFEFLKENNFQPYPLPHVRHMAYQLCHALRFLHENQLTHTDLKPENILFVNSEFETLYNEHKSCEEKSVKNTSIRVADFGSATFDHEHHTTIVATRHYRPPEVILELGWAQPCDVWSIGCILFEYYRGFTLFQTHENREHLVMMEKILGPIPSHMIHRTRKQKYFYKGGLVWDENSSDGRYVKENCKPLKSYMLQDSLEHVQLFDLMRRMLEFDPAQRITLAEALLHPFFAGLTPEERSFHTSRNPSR

Row | EC50 [1] [µM] | EC50 [2] [µM] | EC50 [3] [nM] | EC50 [4] [µM] | Compound | Emax [3] [%]
1 | 0.001 | 0.034 | 10 | > 10 | Nc1cncc(-c2ccc3[nH]nc(-c4nc5c(-c6ccccc6F)ccnc5[nH]4)c3n2)c1 [compound 171] | 127
2 | 0.007 | 0.117 | – | 0.008 | CCCC(=O)Nc1cncc(-c2cnc3[nH]nc(-c4nc5c(-c6ccccc6F)cncc5[nH]4)c3c2)c1 [compound 172] | 82.8
3 | 0.004 | 9.84 | 10 | > 10 | CC(C)C(=O)Nc1cncc(-c2ccc3[nH]nc(-c4nc5c(-c6ccccc6F)cncc5[nH]4)c3n2)c1 [compound 174] | 181
4 | 0.005 | 0.18 | – | 0.823 | O=C(Nc1cncc(-c2ccc3[nH]nc(-c4nc5c(-c6ccccc6F)cccc5[nH]4)c3n2)c1)C(F)(F)F [compound 175] | 40.1
5 | 0.006 | 0.149 | 10 | > 10 | O=C(Nc1cncc(-c2ccc3[nH]nc(-c4nc5c(-c6ccccc6F)ccnc5[nH]4)c3n2)c1)C(F)(F)F [compound 176] | 74
6 | 0.006 | 0.209 | – | 0.001 | CC(C)Nc1cncc(-c2ccc3[nH]nc(-c4nc5c(-c6ccccc6F)cncc5[nH]4)c3c2)c1 [compound 177] | 56.8
7 | 0.005 | 0.207 | 30 | 0.035 | c1cncc(-c2ccc3[nH]nc(-c4nc5c(-c6cccnc6)cncc5[nH]4)c3c2)c1 [compound 178] | 159
8 | 0.011 | 0.969 | 100 | 0.0924 | c1cncc(-c2cc3c(-c4nc5c(-c6cccnc6)cccc5[nH]4)n[nH]c3cn2)c1 [compound 179] | 93
9 | 0.002 | 0.296 | 30 | 1.12 | c1cncc(-c2ccc3[nH]nc(-c4nc5c(-c6cccnc6)cccc5[nH]4)c3n2)c1 [compound 180] | 57.8
10 | 0.015 | 0.017 | – | > 10 | c1cncc(-c2cnc3[nH]nc(-c4nc5c(-c6cccnc6)cncc5[nH]4)c3c2)c1 [compound 181] | 62.9
11 | 0.011 | 9.84 | – | 0.0283 | c1cncc(-c2cc3c(-c4nc5c(-c6cccnc6)nccc5[nH]4)n[nH]c3cn2)c1 [compound 182] | 44.5
12 | 0.001 | 0.105 | 100 | > 10 | c1cncc(-c2ccc3[nH]nc(-c4nc5c(-c6cccnc6)nccc5[nH]4)c3n2)c1 [compound 183] | 70
13 | 0.001 | 0.177 | 30 | > 10 | c1cncc(-c2ccc3[nH]nc(-c4nc5c(-c6cccnc6)cncc5[nH]4)c3n2)c1 [compound 184] | 83.8
14 | 0.001 | 0.308 | 300 | 1.51 | c1cncc(-c2ccc3[nH]nc(-c4nc5c(-c6cccnc6)ccnc5[nH]4)c3n2)c1 [compound 185] | 94.6
15 | 0.004 | 0.037 | – | 0.0051 | CC(C)C(=O)Nc1cncc(-c2ccc3[nH]nc(-c4nc5c(-c6cccnc6)cncc5[nH]4)c3c2)c1 [compound 186] | 34.4
16 | 0.002 | 0.132 | – | > 10 | CC(C)C(=O)Nc1cncc(-c2ccc3[nH]nc(-c4nc5c(-c6cccnc6)ccnc5[nH]4)c3n2)c1 [compound 187] | 26.1
17 | 0.005 | 0.039 | – | 0.0233 | O=C(Nc1cncc(-c2cnc3[nH]nc(-c4nc5c(-c6cccnc6)cncc5[nH]4)c3c2)c1)C1CC1 [compound 190] | 86.3
18 | 0.003 | 0.049 | 300 | 0.0354 | O=C(Nc1cncc(-c2cnc3[nH]nc(-c4nc5c(-c6cccnc6)cncc5[nH]4)c3c2)c1)C1CCC1 [compound 191] | 130
19 | 0.002 | 0.322 | 10 | 0.981 | CC(C)Nc1cncc(-c2ccc3[nH]nc(-c4nc5c(-c6cccnc6)nccc5[nH]4)c3n2)c1 [compound 193] | 54.4
20 | 0.002 | 0.213 | 30 | 1.27 | CC(C)Nc1cncc(-c2ccc3[nH]nc(-c4nc5c(-c6cccnc6)cncc5[nH]4)c3n2)c1 [compound 194] | 64.6

Row | EC50 [1] [µM] | EC50 [2] [µM] | EC50 [3] [nM] | EC50 [4] [µM] | Compound | Emax [3] [%]
21 | 0.001 | 0.28 | 10 | 1.75 | CC(C)Nc1cncc(-c2ccc3[nH]nc(-c4nc5c(-c6cccnc6)ccnc5[nH]4)c3n2)c1 [compound 195] | 114
22 | 0.005 | 0.995 | – | 0.999 | CCCC(=O)Nc1cncc(-c2ccc3[nH]nc(-c4nc5c(-c6ccncc6)cncc5[nH]4)c3n2)c1 [compound 196] | 31
23 | 0.011 | 0.984 | 10 | 0.999 | O=C(Nc1cncc(-c2ccc3[nH]nc(-c4nc5c(-c6ccncc6)ccnc5[nH]4)c3n2)c1)C1CCCCC1 [compound 198] | 68.6
24 | 0.022 | 0.209 | 30 | 0.0201 | c1cncc(-c2cc3c(-c4nc5ccccc5[nH]4)n[nH]c3cn2)c1 [compound 200] | 80.5
25 | 0.015 | 2.27 | 30 | > 10 | c1cncc(-c2ccc3[nH]nc(-c4nc5cnccc5[nH]4)c3n2)c1 [compound 201] | 54.8
26 | 0.002 | 0.065 | 100 | 0.021 | CC(C)(C)CC(=O)Nc1cncc(-c2ccc3[nH]nc(-c4nc5ccncc5[nH]4)c3c2)c1 [compound 202] | 152
27 | 0.011 | 0.558 | 10 | > 10 | CC(C)(C)CC(=O)Nc1cncc(-c2ccc3[nH]nc(-c4nc5ccncc5[nH]4)c3n2)c1 [compound 203] | 54.1
28 | 0.027 | 0.206 | – | 0.008 | O=C(Nc1cncc(-c2ccc3[nH]nc(-c4nc5ccncc5[nH]4)c3c2)c1)C1CC1 [compound 204] | 93.8
29 | 0.012 | 0.213 | 900 | > 10 | CCC(=O)Nc1cncc(-c2ccc3[nH]nc(-c4nc5c(N6CCCCC6)cncc5[nH]4)c3n2)c1 [compound 206] | 69.8
30 | 0.003 | 1.29 | – | > 10 | CCC(=O)Nc1cncc(-c2ccc3[nH]nc(-c4nc5c(N6CCCCC6)ccnc5[nH]4)c3n2)c1 [compound 207] | 38.3
31 | 0.011 | 0.094 | 100 | 0.041 | CC(C)(C)C(=O)Nc1cncc(-c2ccc3[nH]nc(-c4nc5c(N6CCCCC6)cncc5[nH]4)c3c2)c1 [compound 209] | 114
32 | 0.007 | 0.054 | 30 | 0.039 | O=C(Nc1cncc(-c2ccc3[nH]nc(-c4nc5c(N6CCCCC6)cncc5[nH]4)c3c2)c1)C1CCC1 [compound 210] | 106
33 | 0.008 | 0.107 | – | 0.02 | FC1(F)CCN(Cc2cncc(-c3ccc4[nH]nc(-c5nc6c(N7CCCCC7)cncc6[nH]5)c4c3)c2)C1 [compound 211] | 80.1
34 | 0.005 | 0.089 | 10 | 0.116 | FC1(F)CCN(Cc2cncc(-c3cc4c(-c5nc6c(N7CCCCC7)cncc6[nH]5)n[nH]c4cn3)c2)C1 [compound 212] | 100
35 | 0.001 | 0.051 | – | 0.053 | CN1CCN(c2cncc3[nH]c(-c4n[nH]c5ccc(-c6cccnc6)cc45)nc23)CC1 [compound 213] | 80.6
36 | 0.002 | 0.344 | 100 | > 10 | CN1CCN(c2nccc3[nH]c(-c4n[nH]c5ccc(-c6cncc(N)c6)nc45)nc23)CC1 [compound 214] | 135
37 | 0.005 | 0.5 | 30 | > 10 | CN1CCN(c2cncc3[nH]c(-c4n[nH]c5ccc(-c6cncc(N)c6)nc45)nc23)CC1 [compound 215] | 64.6
38 | 0.002 | 0.843 | – | > 10 | CN1CCN(c2ccnc3[nH]c(-c4n[nH]c5ccc(-c6cncc(N)c6)nc45)nc23)CC1 [compound 216] | 46.9
39 | 0.001 | 0.032 | – | 0.083 | CN1CCN(c2cncc3[nH]c(-c4n[nH]c5ccc(-c6cncc(N7CCOCC7)c6)cc45)nc23)CC1 [compound 218] | 63.8
40 | 0.003 | 0.188 | 30 | > 10 | Cc1cn(-c2nccc3[nH]c(-c4n[nH]c5ccc(-c6cncc(NC(=O)C(C)(C)C)c6)nc45)nc23)cn1 [compound 221] | 69.7
